Laboratory results taken from patent US8481595B2, “Compounds for the treatment of metabolic disorders” (Wellstat Therapeutics Corporation, priority 2008, dated 2013).

System: db/db mice
Experiment: Antidiabetic effects in db/db mice (serum chemistry after 2 weeks of daily oral dosing)
Type: in vivo
From the text: Db/db mice have a defect in leptin signaling, leading to hyperphagia, obesity and diabetes. Moreover, unlike ob/ob mice on a C57BL/6J background, db/db mice on a C57BLKS background undergo failure of their insulin-producing pancreatic islet cells, resulting in progression from hyperinsulinemia (associated with peripheral insulin resistance) to hypoinsulinemic diabetes.
Male obese (db/db homozygote) C57BL/Ksola mice approximately 8 weeks of age, were obtained from Jackson Labs (Bar Harbor, Me.) and randomly assigned into groups of 5-7 animals such that the body weights (40-45 g) and serum glucose levels (≧300 mg/dl in fed state) were similar between groups; male lean (db/+heterozygote) mice served as cohort controls. A minimum of 7 days was allowed for adaptation after arrival. All animals were maintained under controlled temperature (23° C.), relative humidity (50±5%) and light (7:0-19:00), and allowed free access to standard chow (Formulab Diet 5008, Quality Lab Products, Elkridge, Md.) and water.
Mice received daily oral doses of vehicle or Compound DP (100 mg/kg/day) for 2 weeks. At the end of the treatment period 100 μl of venous blood was withdrawn in a heparinized capillary tube from the retro-orbital sinus for serum chemistry analysis.

[1] = db/db mice, after 2 weeks of daily oral dosing, 100 mg/kg/day

Cc1cccc(C)c1C(=O)Oc1cccc(C(=O)CCC(=O)O)c1 [Compound DP, 4-(3-(2,6-Dimethylbenzoyloxy)phenyl)-4-oxobutanoic acid]
reduction in serum glucose (in words) [1]: significant reduction
reduction in serum triglycerides (in words) [1]: significant reduction
Triglycerides (serum) (male db/db C57BL/Ksola mice, 100 mg/kg/day oral, 2 weeks, vehicle 388.0 ± 50.7, lean 96.4 ± 6.4, *p < 0.05 vs vehicle-control): 140.8 ± 20.6* mg/dL
Glucose (serum) (male db/db C57BL/Ksola mice, 100 mg/kg/day oral, 2 weeks, vehicle 752.9 ± 46.0, lean 212.6 ± 15.3, *p < 0.05 vs vehicle-control): 264.3 ± 96.8* mg/dL
